The source of these data is patent US20040121994A1, “Novel amides that activate soluble guanylate cyclase” (priority 2002, published 2004).

Molecules are shown by their SMILES.

This assay deals with T1, soluble guanylate cyclase (sGC), α1 and β1 subunits of guanylate cyclase expressed in Sf9 cells (Homo sapiens, UniProt Q02108+Q02153).
T1 construct: made in house; host or cells: Sf9 insect cells (baculovirus co-infection)
T1 sequence (Q02108 1-690): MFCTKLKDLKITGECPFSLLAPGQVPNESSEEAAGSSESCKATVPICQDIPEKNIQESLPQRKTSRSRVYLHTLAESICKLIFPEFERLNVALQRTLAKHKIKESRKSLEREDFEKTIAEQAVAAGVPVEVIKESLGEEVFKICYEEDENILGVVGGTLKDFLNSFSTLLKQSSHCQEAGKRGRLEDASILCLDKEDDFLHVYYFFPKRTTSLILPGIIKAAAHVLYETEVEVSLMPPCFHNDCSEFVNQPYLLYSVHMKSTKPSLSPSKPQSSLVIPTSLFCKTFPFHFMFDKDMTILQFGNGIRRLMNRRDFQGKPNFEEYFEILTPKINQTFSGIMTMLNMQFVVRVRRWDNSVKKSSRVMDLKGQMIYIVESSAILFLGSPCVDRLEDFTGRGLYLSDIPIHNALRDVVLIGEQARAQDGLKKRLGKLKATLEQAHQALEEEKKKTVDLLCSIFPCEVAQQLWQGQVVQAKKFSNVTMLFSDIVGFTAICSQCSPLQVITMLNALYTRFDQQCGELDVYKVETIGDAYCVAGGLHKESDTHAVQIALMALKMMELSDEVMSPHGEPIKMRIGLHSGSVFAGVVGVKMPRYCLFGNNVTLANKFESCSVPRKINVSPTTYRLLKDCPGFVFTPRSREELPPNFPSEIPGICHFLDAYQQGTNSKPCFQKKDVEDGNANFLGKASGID
T1 sequence (Q02153 1-619): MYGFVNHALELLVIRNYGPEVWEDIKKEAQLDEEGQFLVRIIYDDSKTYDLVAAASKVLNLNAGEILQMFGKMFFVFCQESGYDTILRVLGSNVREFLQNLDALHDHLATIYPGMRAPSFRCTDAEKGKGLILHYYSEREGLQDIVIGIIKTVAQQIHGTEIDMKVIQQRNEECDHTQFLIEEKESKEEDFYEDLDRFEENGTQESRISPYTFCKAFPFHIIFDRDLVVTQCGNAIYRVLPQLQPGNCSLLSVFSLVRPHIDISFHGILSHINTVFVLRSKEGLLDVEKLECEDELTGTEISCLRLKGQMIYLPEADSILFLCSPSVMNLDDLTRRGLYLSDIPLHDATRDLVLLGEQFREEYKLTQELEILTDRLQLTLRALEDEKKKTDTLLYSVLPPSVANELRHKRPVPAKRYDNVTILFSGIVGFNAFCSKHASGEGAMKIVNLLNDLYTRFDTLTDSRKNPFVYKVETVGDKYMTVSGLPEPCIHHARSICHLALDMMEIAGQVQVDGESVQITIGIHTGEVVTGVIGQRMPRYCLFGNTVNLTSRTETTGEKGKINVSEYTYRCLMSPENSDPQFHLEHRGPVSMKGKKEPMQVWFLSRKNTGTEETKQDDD
The assay can be described thus: Guanylate cyclase assay (formation of cyclic GMP from GTP). The format is biochemical. As to conditions: for Mean activation at 100 μM: (activity of compound at 100 μM with 1 μM SNP)−(activity of compound at 100 μM)/(activity of SNP at 1 μM)−(basal activity of sGC); for Mean efficacy of compound combined with 1 μM of SNP, [%]: compound at 100 μM with 1 μM sodium nitro prusside (SNP); for Emax at 100 µM: read-out: Mean basal efficacy of compound alone at 100 μM, [%]. On the procedure: Sf9 cells were cultured in Sf-90011 medium supplemented with 10% (v/v) fetal calf serum at 28° C. to give a count of 6×10^5 cells/ml. The cells were then infected with a mixture of the virus stocks for the α1 and β1 subunits of guanylate cyclase at a multiplicity of infection of 0.1 pfu/cell. The cells were harvested 72 hours after infection and were pelleted by centrifugation. The resulting cell pellets were homogenized with Polytron homogenizer in 3 volumes of 20 mM Tris-HCl (pH 7.6) containing 1 mM EDTA, 5 mM dithiothreitol, 90 mM NaCl, 10% glycerol, and protease inhibitors mix (Roche Molecular Biochemicals). The homogenate was centrifuged at 50,000×g for 60 minutes and the supernatant was aliquotted and stored at −80° C.
Compounds of the present invention were dissolved in DMSO to make 100 mM and saved as stocks at −20° C. When compounds were tested, prepared 10-fold concentrated solutions with 10% DMSO. Then added 10 μl of 10-fold concentrated compound solutions to the reaction mixture of total 100 μl.
Guanylate cyclase activity was measured by the formation of cyclic GMP from GTP in a total volume of 100 μl. Guanylate cyclase-expressed Sf9 cell high-speed supernatant was used as an enzyme source for the assay. The reaction mixture containing 0.1 μl enzyme (Sf9 high-speed sup), compound solution, 50 mM Tris-HCl (pH 7.6), 4 mM MgCl2, 0.5 mM IBMX, 15 mM creatine phosphate, 20 μg creatine phosphokinase, 0.1% BSA and 1 mM GTP was incubated at 37° C. for 15 minutes. After the reaction, 0.9 ml of 50 mM sodium acetate buffer (pH 5.8) was added followed by boiling for 3 minutes to stop the reaction. The solution was centrifuged at 3000 rpm for 15 minutes at room temperature and cyclic GMP in 20 μl of the resulting supernatant was measured according to the protocol of Amersham cyclic GMP enzymeimmunoassay system (purchased from Sigma, catalogue number RPN 226).
Compounds of the present invention were tested at 100 μM with and without 1 μM sodium nitro prusside (SNP). 1-Benzyl-3-hydroxymethyl-2-furylindazole (YC-1) was included as a standard for each assay. The data was normalized with the activity of 100 μM YC-1 (without SNP) as 100%. Mean basal efficacy, in Table 1, was expressed as a percentage of 100 μM YC-1 (without SNP).
The mean activation, in Table 1, was calculated based on the formula: (activity of compound of the present invention at 100 μM with 1 μM SNP)−(activity of compound of the present invention at 100 μM)/(activity of SNP at 1 μM)−(basal activity of sGC).

Where [1] appears, read: normalized with the activity of 100 μM YC-1 (without SNP) as 100%.
[2] abbreviates: compound at 100 μM without SNP, normalized with the activity of 100 μM YC-1 (without SNP) as 100%.

Turning to `CC(C)CCSc1ccccc1/C=C/C(=O)N1CCC(C(N)=O)CC1` [Example 63, 1-((2E)-3-{2-[(3-methylbutyl)thio]phenyl}-2-propenoyl)-4-piperidinecarboxamide], the “Mean activation at 100 μM” value is reported as 6.8. For the same molecule, the “Mean efficacy of compound combined with 1 μM of SNP, [%]” value (shortened to “Mean efficacy … [%]”) under setting [1] was 164%. Also, the Emax at 100 µM under setting [2] was 125%.
For `Cc1ccc(Sc2ccccc2CCC(=O)NCCCCO)cc1` [Example 5, N-(4-hydroxybutyl)-3-{2-[(4-methylphenyl)thio]phenyl}propanamide] the same measures were 5.1, 96% and 14%.
On the same counts, the results for `CC(C)CCSc1ccccc1/C=C/C(=O)N1CCC(O)CC1` [Example 60, 1-((2E)-3-{2-[(3-methylbutyl)thio]phenyl}-2-propenoyl)-4-piperidinol] are 8.3, 165% and 115%.
For `CC(C)CCSc1ccccc1/C=C/C(=O)NCCCCCO` [Example 59, (2E)-N-(5-hydroxypentyl)-3-{2-[(3-methylbutyl)thio]phenyl}acrylamide] the same measures were 8.4, 221% and 162%.
Regarding `O=C(/C=C/c1ccccc1Sc1ccc(Cl)cc1)NCCCCO` [Example 34, (2E)-3-{2-[(4-chlorophenyl)thio]phenyl}-N-(4-hydroxybutyl)acrylamide], the “Mean activation at 100 μM” value worked out at 6.9. Moreover, under setting [1], the “Mean efficacy … [%]” value is 219%. Moreover, the Emax at 100 µM under setting [2] worked out at 113%.
For `CC(C)Sc1ccccc1/C=C/C(=O)NC1CCC(O)CC1` (stereo not drawn) [Example 24, (2E)-N-(4-hydroxycyclohexyl)-3-[2-(isopropylthio)phenyl]acrylamide] the same measures were 1.6, 17% and 4%.
Turning to `COc1ccc(Sc2ccccc2/C=C/C(=O)NC2CCC(O)CC2)cc1` (stereo not drawn) [Example 51, (2E)-N-(4-hydroxycyclohexyl)-3-{2-[(4-methoxyphenyl)thio]phenyl}acrylamide], the “Mean activation at 100 μM” value was 7.2. Moreover, the “Mean efficacy … [%]” value under setting [1] is 258%. The Emax at 100 µM under setting [2] was 119%.
With `O=C(/C=C/c1ccccc1SC1CCCC1)NC1CCCCC1O` (stereo not drawn) [Example 22, (2E)-3-[2-(cyclopentylthio)phenyl]-N-(2-hydroxycyclohexyl)acrylamide], the “Mean activation at 100 μM” value came to 3.9. Moreover, the “Mean efficacy … [%]” value under setting [1] was determined as 169%. Under setting [2], the Emax at 100 µM came to 158%.
For `CNCCCCNC(=O)CCc1ccccc1Sc1ccc(Cl)cc1` [Example 13, 3-{2-[(4-chlorophenyl)thio]phenyl}-N-[4-(methylamino)butyl]propanamide] the same measures were 2.4, 25% and 4%.
On the same counts, the results for `O=C(/C=C/c1cccnc1Sc1ccccc1Cl)NC1CCC(O)CC1` (stereo not drawn) [Example 20, (2E)-3-{2-[(2-chlorophenyl)thio]-3-pyridinyl}-N-(4-hydroxycyclohexyl)acrylamide] are 6.3, 199% and 90%.
For `Cc1ccc(/C=C/C(=O)NC2CCC(O)CC2)c(Sc2ccc(Cl)cc2)n1` (stereo not drawn) [Example 28, (2E)-3-{2-[(4-chlorophenyl)thio]-6-methyl-3-pyridinyl}-N-(4-hydroxycyclohexyl)acrylamide] the same measures were 2.6, 18% and 6%.
With `O=C(/C=C/c1ccccc1SC1CCCC1)NC1CCC(O)CC1` (stereo not drawn) [Example 25, (2E)-3-[2-(cyclopentylthio)phenyl]-N-(4-hydroxycyclohexyl)acrylamide], the “Mean activation at 100 μM” value is reported as 9.5. The “Mean efficacy … [%]” value under setting [1] worked out at 430%. The Emax at 100 µM under setting [2] came out at 242%.
Regarding `OCc1ccc(-c2nn(Cc3ccccc3)c3ccccc23)o1` [YC-1, 1-Benzyl-3-hydroxymethyl-2-furylindazole, reference compound], the “Mean activation at 100 μM” value is given as 2.7. Moreover, the “Mean efficacy … [%]” value under setting [1] was found to be 224%. Under setting [2], the “Mean basal efficacy of compound alone at 100 μM, [%]” value was 100%.
In the case of `COc1cccc(Sc2ccccc2/C=C/C(=O)NC2CCCCC2O)c1` (stereo not drawn) [Example 48, (2E)-N-(2-hydroxycyclohexyl)-3-{2-[(3-methoxyphenyl)thio]phenyl}acrylamide], the “Mean activation at 100 μM” value is 4.6. Besides, the “Mean efficacy … [%]” value under setting [1] was found to be 102%. The Emax at 100 µM under setting [2] turned out to be 20%.
For `CC(CCCC(C)(C)O)NC(=O)/C=C/c1ccccc1Sc1ccc(Cl)cc1` (stereo not drawn) [Example 31, (2E)-3-{2-[(4-chlorophenyl)thio]phenyl}-N-(5-hydroxy-1,5-dimethylhexyl)acrylamide] the same measures were 3.7, 187% and 93%.
For `CC(C)CCSc1ccccc1/C=C/C(=O)NC1CCCCC1O` (stereo not drawn) [Example 56, (2E)-N-(2-hydroxycyclohexyl)-3-{2-[(3-methylbutyl)thio]phenyl}acrylamide] the same measures were 8.3, 276% and 169%.
Turning to `Cc1ccc(Sc2ccccc2/C=C/C(=O)NC2CCC(O)CC2)cc1` (stereo not drawn) [Example 42, (2E)-N-(4-hydroxycyclohexyl)-3-{2-[(4-methylphenyl)thio]phenyl}acrylamide], the “Mean activation at 100 μM” value is 4.8. Besides, the “Mean efficacy … [%]” value under setting [1] turned out to be 58%. In addition, the Emax at 100 µM under setting [2] was 14%.
